Here are results for 18 compounds from patent publication US10689377B2 (Mirati Therapeutics, Inc., priority 2017, dated 2020).

For orientation: IC50 means the point on the concentration scale where inhibition reaches its midpoint.

Structures can show the parent of a compound that is named as a salt. A value given as a limit tells only on which side of the number the result lay.

Sequence of KRas G12C (P01116 1-188 isoform P01116-2 G12C): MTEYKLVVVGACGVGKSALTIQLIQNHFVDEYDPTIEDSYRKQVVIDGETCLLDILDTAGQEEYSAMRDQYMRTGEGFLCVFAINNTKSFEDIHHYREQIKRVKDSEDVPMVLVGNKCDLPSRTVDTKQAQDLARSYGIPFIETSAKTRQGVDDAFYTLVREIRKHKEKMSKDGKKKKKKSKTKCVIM

The test addresses KRas G12C (Homo sapiens, UniProt P01116, G12C). Nature of the test: Cellular inhibition of KRas G12C measured by Phospho-ERK in NCI-H358 cells. It counts as cell-based. Conditions: pERK(Thr202/Tyr204) normalized with GAPDH, NCI-H358 cells, 3 hours; read-out: IC50. An outline of the steps: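 Following 8-12 h attachment, NCI-H358 cells got serially diluted compound (0.5% DMSO) for 3 hours. Cells were then fixed, permeabilized with cold methanol, and stained for pERK(Thr202/Tyr204) and GAPDH. Ratios were converted to percent of DMSO control, with IC50 obtained by four-parameter regression.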
As for `C=CC(=O)N1CCN(c2nc(OC[C@@H]3CCCN3C)nc3c2CCN(c2cccc4cccc(C)c24)C3)C[C@H]1CC#N` [Example 461, 2-[(2R)-4-[7-(8-methyl-1-naphthyl)-2-[[(2S)-1-methylpyrrolidin-2-yl]methoxy]-6,8-dihydro-5H-pyrido[3,4-d]pyrimidin-4-yl]-1-prop-2-enoyl-piperazin-2-yl]acetonitrile], the IC50 was 0.1 to 1000 nM.

Take `C=CC(=O)N1CCN(c2nc(OC[C@@H]3CCCN3C(C)C)nc3c2CCN(c2cccc4ccccc24)C3)C[C@@H]1CC#N` [Example 320, 2-[(2S)-4-[2-[[(2S)-1-isopropylpyrrolidin-2-yl]methoxy]-7-(1-naphthyl)-6,8-dihydro-5H-pyrido[3,4-d]pyrimidin-4-yl]-1-prop-2-enoyl-piperazin-2-yl]acetonitrile]: the IC50 fell in the range of 0.1 to 1000 nM.

For the compound `C=CC(=O)N1CCN(c2nc(OCCCN3CCOCC3)nc3c2CCN(c2cc(O)ccc2OC(C)C)C3)CC1` [Example 96, 1-(4-(7-(5-hydroxy-2-isopropoxyphenyl)-2-(3-morpholinopropoxy)-5,6,7,8-tetrahydropyrido[3,4-d]pyrimidin-4-yl)piperazin-1-yl)prop-2-en-1-one], the IC50 is more than 1000 nM.

For `C=CC(=O)N1CCN(c2nc(OC[C@@H]3CCCN3C)nc3c2CCN(c2cccc4ccccc24)C3)C[C@@H]1CCOC` [Example 433, 1-((S)-2-(2-methoxyethyl)-4-(2-(((S)-1-methylpyrrolidin-2-yl)methoxy)-7-(naphthalen-1-yl)-5,6,7,8-tetrahydropyrido[3,4-d]pyrimidin-4-yl)piperazin-1-yl)prop-2-en-1-one], the IC50 is more than 1000 nM.

For `CC#CC(=O)N1CCN(c2nc(OC[C@@H]3CCCN3C)nc3c2CCN(c2cccc4cccc(C)c24)C3)C[C@@H]1CC#N` [Example 458, 2-((S)-1-(but-2-ynoyl)-4-(7-(8-methylnaphthalen-1-yl)-2-(((S)-1-methylpyrrolidin-2-yl)methoxy)-5,6,7,8-tetrahydropyrido[3,4-d]pyrimidin-4-yl)piperazin-2-yl)acetonitrile], the IC50 was 0.1 to 1000 nM.

Regarding `C=CC(=O)N1CCN(c2nc(OCCCN3CCC(OC)C3)nc3c2CCN(c2cc(O)cc4ccccc24)C3)CC1` (stereo not drawn) [Example 137, 1-[4-[7-(3-hydroxy-1-naphthyl)-2-[3-(3-methoxypyrrolidin-1-yl)propoxy]-6,8-dihydro-5H-pyrido[3,4-d]pyrimidin-4-yl]piperazin-1-yl]prop-2-en-1-one], the IC50 was more than 1000 nM.

As for `Cc1cccc2cccc(N3CCc4c(nc(OC[C@@H]5CCCN5C)nc4N4CCN(C(=O)/C=C/C(=O)N(C)C)[C@@H](CC#N)C4)C3)c12` [Example 499, (E)-4-((S)-2-(cyanomethyl)-4-(7-(8-methylnaphthalen-1-yl)-2-(((S)-1-methylpyrrolidin-2-yl)methoxy)-5,6,7,8-tetrahydropyrido[3,4-d]pyrimidin-4-yl)piperazin-1-yl)-N,N-dimethyl-4-oxobut-2-enamide], the IC50 lay in the range of 0.1 to 1000 nM.

As to `C=CC(=O)N1CCN(c2nc(OC[C@@H]3CCCN3C)nc3c2CCN(c2cccc4c(F)cccc24)C3)CC1CC#N` (stereo partly drawn) [Example 254, 2-[4-[7-(5-fluoro-1-naphthyl)-2-[[(2S)-1-methylpyrrolidin-2-yl]methoxy]-6,8-dihydro-5H-pyrido[3,4-d]pyrimidin-4-yl]-1-prop-2-enoyl-piperazin-2-yl]acetonitrile], the IC50 was in the range of 0.1 to 1000 nM.

Consider `C=CC(=O)N1CCN(c2nc(O[C@H](C)CN(C)C)nc3c2CCN(c2cc(O)cc4ccccc24)C3)CC1` [Example 19, (R)-1-(4-(2-((1-(dimethylamino)propan-2-yl)oxy)-7-(3-hydroxynaphthalen-1-yl)-5,6,7,8-tetrahydropyrido[3,4-d]pyrimidin-4-yl)piperazin-1-yl)prop-2-en-1-one], for which the IC50 is 0.1 to 1000 nM.

As to `C=C(F)C(=O)N1CCN(c2nc(OC[C@@H]3CCCN3C)nc3c2CCN(c2c(C)ncc4ccccc24)C3)C[C@@H]1CC#N` [Example 617], the IC50 was more than 1000 nM.

As to `C=CC(=O)N1CCN(c2nc(OCCCN3CCOCC3)nc3c2CCN(c2cc(O)cc(C4CC4)c2)C3)CC1` [Example 41, 1-(4-(7-(3-cyclopropyl-5-hydroxyphenyl)-2-(3-morpholinopropoxy)-5,6,7,8-tetrahydropyrido[3,4-d]pyrimidin-4-yl)piperazin-1-yl)prop-2-en-1-one trifluoroacetate], the IC50 is more than 1000 nM.

On to `C=CC(=O)N1CCN(c2nc(OCCCN3CCOCC3)nc3c2CCN(c2cc(C(F)F)cc4ccccc24)C3)CC1` [Example 112, 1-(4-(7-(3-(difluoromethyl)naphthalen-1-yl)-2-(3-morpholinopropoxy)-5,6,7,8-tetrahydropyrido[3,4-d]pyrimidin-4-yl)piperazin-1-yl)prop-2-en-1-one], for which the IC50 was more than 1000 nM.

Consider `C=CC(=O)N1CCN(c2nc(OC[C@@H]3CCCN3CC)nc3c2CCN(c2cccc4ccccc24)C3)C[C@@H]1CC#N` [Example 400, 2-((S)-1-acryloyl-4-(2-(((S)-1-ethylpyrrolidin-2-yl)methoxy)-7-(naphthalen-1-yl)-5,6,7,8-tetrahydropyrido[3,4-d]pyrimidin-4-yl)piperazin-2-yl)acetonitrile], for which the IC50 is 0.1 to 1000 nM.

For `C=CC(=O)N1CCN(c2nc(OC[C@H]3CCCN3C)nc3c2CCN(c2cccc(Cl)c2C(F)(F)F)C3)C[C@@H]1CC#N` [Example 319, 2-((S)-1-acryloyl-4-(7-(3-chloro-2-(trifluoromethyl)phenyl)-2-(((R)-1-methylpyrrolidin-2-yl)methoxy)-5,6,7,8-tetrahydropyrido[3,4-d]pyrimidin-4-yl)piperazin-2-yl)acetonitrile], the IC50 fell in the range of 0.1 to 1000 nM.

In the case of `C=C(F)C(=O)N1CCN(c2nc(OC[C@@H]3CCC(=O)N3C)nc3c2CCN(c2cccc4cccc(C)c24)C3)C[C@@H]1CC#N` [Example 569, 2-[(2S)-1-(2-Fluoroprop-2-enoyl)-4-[7-(8-methyl-1-naphthyl)-2-[[(2S)-1-methyl-5-oxo-pyrrolidin-2-yl]methoxy]-6,8-dihydro-5H-pyrido[3,4-d]pyrimidin-4-yl]piperazin-2-yl]acetonitrile], the IC50 is more than 1000 nM.

On to `C=CC(=O)N1CCN(c2nc(O[C@H](C)CN3CCN(C(C)=O)CC3)nc3c2CCN(c2cc(O)cc4ccccc24)C3)CC1` [Example 36, (R)-1-(4-(2-((1-(4-acetylpiperazin-1-yl)propan-2-yl)oxy)-7-(3-hydroxynaphthalen-1-yl)-5,6,7,8-tetrahydropyrido[3,4-d]pyrimidin-4-yl)piperazin-1-yl)prop-2-en-1-one], for which the IC50 is more than 1000 nM.

With `C=CC(=O)N1CCN(c2nc(OC[C@@H]3CCCN3C)nc3c2CCN(c2c(C)c(C)cc4[nH]ncc24)C3)CC1` [Example 453, 1-[4-[7-(5,6-dimethyl-1H-indazol-4-yl)-2-[[(2S)-1-methylpyrrolidin-2-yl]methoxy]-6,8-dihydro-5H-pyrido[3,4-d]pyrimidin-4-yl]piperazin-1-yl]prop-2-en-1-one], the half-inhibitory concentration (IC50) was in the range of 0.1 to 1000 nM.

For `C=CC(=O)N1CCN(c2nc(OC[C@@H]3CCCN3C)nc3c2CCN(c2cccc(Cl)c2C(F)(F)F)C3)CC1CC#N` (stereo partly drawn) [Example 414, 2-(1-acryloyl-4-(7-(3-chloro-2-(trifluoromethyl)phenyl)-2-(((S)-1-methylpyrrolidin-2-yl)methoxy)-5,6,7,8-tetrahydropyrido[3,4-d]pyrimidin-4-yl)piperazin-2-yl)acetonitrile], the IC50 lay within 0.1 to 1000 nM.
